Experimental data reported in PubChem BioAssay AID1963854 (Molecular Pharmacology Branch, DTP, NCI, 2024).
pIC50: −log10 of the molar value.

Tested on: 186277-243-T-J2-PDC complex spheroid viability
Assay: Anticancer human tumor 186277-243-T-J2-PDC patient-derived colon adenocarcinoma cell line growth inhibition [POLQ]
Conditions: for viability, T/C: stronger effect = lower value
Method: Multicellular complex tumor spheroid response to Polymerase (POL) inhibitors (novobiocin, ART-558, RP6685) in combination with a variety of drugs and investigational agents in selected tumor cell lines
The POL inhibitors (novobiocin, ART-558, and RP6685) were evaluated both individually and in combination with standard of care and investigational anticancer small molecules within a complex spheroid model of solid tumors. . Complex spheroids include a stromal component modeled by human endothelial cells (HUVEC) and fibroblasts modeled by human mesenchymal stem cells (MSCs). The concentration ranges selected for each drug and investigational agent were based upon clinically achievable concentrations if the clinical Cmax of the agent was known.
Compounds. The drugs and investigational agents: novobiocin (NSC847541), ART-558 (NSC835418), RP-6685 (NSC848927), peposertib (NSC802822), ceralasertib (NSC780249), elimusertib (NSC800525), camonsertib (NSC841442), AZD-1390 (NSC803789), olaparib (NSC753686), talazoparib (NSC767125), rucaparib (NSC756644), sotorasib (NSC818433), MRTX-1133 (NSC836407), SN-38 (NSC673596), topotecan (NSC609699), epotoside (NSC141540), doxorubicin (NSC123127), gemcitabine (NSC613327), 5-fluorouracil (NSC19893), paclitaxel (NSC125973), vemurafenib (NSC761431), MSA-2 (NSC828583), SN-011 (NSC837082), adavosertib (NSC754352), prexasertib (NSC758257), carboplatin (NSC241240) and oxaliplatin (NSC266046), were obtained from the National Cancer Institute (NCI) Developmental Therapeutics Program Chemical Repository (21). The FDA-approved anticancer drug set is available from the Developmental Therapeutics Program at https://dtp.cancer.gov/organization/dscb/obtaining/. […] The stock solutions were prepared in dimethyl sulfoxide (DMSO, Sigma-Aldrich, St. Louis, MO, cat. D2650), except for the platinum compounds which were prepared in saline (Quality Biological, Gaithersburg, MD, cat. 114-055-101), at 800-fold the tested concentration and stored at -70 degrees C prior to their use. All drugs and investigational agents were tested over a range starting from a high concentration at or near the clinical Cmax and decreasing in half-log increments. If the clinical Cmax for an agent had not been determined, the highest concentration tested was 10 microM, except for SN-38, which was tested at a high concentration of 1 microM.
Cell Culture. All cells were maintained in an incubator at 37 degrees C and 5% CO2 with 95% humidity. The PDC lines were cultured according to standard operating procedures established by the NCI PDMR (https://pdmr.cancer.gov). Table 3 of the manuscript, lists the cell lines along with the number of the three cell types plated to form the mct-spheroids and media for tumor cell growth. After thawing, all PDC lines, except 997537-175-T-J1-PDC and 415267-285-R-J2-PDC, were cultured in Matrigel-coated flasks prepared with a working solution of 1X Ham's F-12 nutrient mix, without supplementation (Thermo Fisher Scientific, cat. 11765054), 100 U/mL penicillin-streptomycin (Thermo Fisher Scientific, cat. 15140122), and 2.5% Matrigel (Corning Inc., Corning, NY, cat. 354248) for the first three passages. The two PDC lines 997537-175-T-J1-PDC and 415267-285-R-J2-PDC were cultured on uncoated flasks. The 857933-349-R-J2-PDC line was cultured in 6C/Colon 1B media containing advanced DMEM/F-12 (Thermo Fisher Scientific, cat. 12634028), 10 mM HEPES (Thermo Fisher Scientific, cat. 15630080), 1X GlutaMAX supplement (Thermo Fisher Scientific, cat. 35050061), 0.1 mg/mL primocin (InvivoGen, San Diego, CA, cat. ant-pm-2), 10% defined fetal bovine serum, heat inactivated (HyClone Laboratories Inc., Logan, UT, cat. SH30070.03HI), 50% L-WRN conditioned media (ATCC, cat. CRL-3276), 1.25 mM N-Acetyl-L-cysteine (Sigma-Aldrich, cat. A9165), 10 mM nicotinamide (Sigma-Aldrich, cat. N0636), 1X B-27 supplement (Thermo Fisher Scientific, cat. 17504044), 1X N-2 supplement (Thermo Fisher Scientific, cat. […]

[1] = curve of first compound, second compound 0.0316 µM
[2] = curve of first compound, second compound 0.1 µM
[3] = curve of first compound, second compound 0.316 µM
[4] = curve of first compound, second compound 1 µM
[5] = curve of first compound, second compound 3.16 µM
[6] = curve of first compound, second compound 10 µM
[7] = second compound 0.0316 µM, first compound 0.0316 µM
[8] = second compound 0.0316 µM, first compound 0.1 µM
[9] = second compound 0.0316 µM, first compound 0.316 µM
[10] = second compound 0.0316 µM, first compound 1 µM
[11] = second compound 0.0316 µM, first compound 3.16 µM
[12] = second compound 0.0316 µM, first compound 10 µM
[13] = second compound 0.1 µM, first compound 0.0316 µM
[14] = second compound 0.1 µM, first compound 0.1 µM
[15] = second compound 0.1 µM, first compound 0.316 µM
[16] = second compound 0.1 µM, first compound 1 µM
[17] = second compound 0.1 µM, first compound 3.16 µM
[18] = second compound 0.1 µM, first compound 10 µM
[19] = second compound 0.316 µM, first compound 0.0316 µM
[20] = second compound 0.316 µM, first compound 0.1 µM
[21] = second compound 0.316 µM, first compound 0.316 µM
[22] = second compound 0.316 µM, first compound 1 µM
[23] = second compound 0.316 µM, first compound 3.16 µM
[24] = second compound 0.316 µM, first compound 10 µM
[25] = second compound 1 µM, first compound 0.0316 µM
[26] = second compound 1 µM, first compound 0.1 µM
[27] = second compound 1 µM, first compound 0.316 µM
[28] = second compound 1 µM, first compound 1 µM
[29] = second compound 1 µM, first compound 3.16 µM
[30] = second compound 1 µM, first compound 10 µM
[31] = second compound 3.16 µM, first compound 0.0316 µM
[32] = second compound 3.16 µM, first compound 0.1 µM
[33] = second compound 3.16 µM, first compound 0.316 µM
[34] = second compound 3.16 µM, first compound 1 µM
[35] = second compound 3.16 µM, first compound 3.16 µM
[36] = second compound 3.16 µM, first compound 10 µM
[37] = second compound 10 µM, first compound 0.0316 µM
[38] = second compound 10 µM, first compound 0.1 µM
[39] = second compound 10 µM, first compound 0.316 µM
[40] = second compound 10 µM, first compound 1 µM
[41] = second compound 10 µM, first compound 3.16 µM
[42] = second compound 10 µM, first compound 10 µM
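Note: spheroids exposed to compounds for seven days.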
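Throughout, for viability, T/C: 100% = DMSO vehicle control viability.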

Structure (SMILES): Cc1cccc(N(C)C(=O)C2C(O)CCN2c2nc(C)cc(C(F)(F)F)c2C#N)c1 (configuration not stated)
- viability, T/C (compound 0.0316 µM): 107% [middle of 13 runs]
- viability, T/C (compound 0.1 µM): 102% [middle of 13 runs]
- viability, T/C (compound 0.316 µM): 99.1% [middle of 13 runs]
- viability, T/C (compound 1 µM): 97.2% [middle of 13 runs]
- viability, T/C (compound 3.16 µM): 95.9% [middle of 13 runs]
- viability, T/C (compound 10 µM): 92.7% [middle of 13 runs]
- pIC50 (compound alone, run of 10/31/2023): < 5.00
- pIC50 (compound alone, run of 11/06/2023): < 5.00

Structure (SMILES): CC1COCCN1c1cc(-c2ccnn2C)c2ccnc(-c3ccn[nH]3)c2n1 (configuration not stated) + Cc1cccc(N(C)C(=O)C2C(O)CCN2c2nc(C)cc(C(F)(F)F)c2C#N)c1
- pIC50 [1]: 7.38
- pIC50 [2]: 7.33
- pIC50 [3]: 7.30
- pIC50 [4]: 7.31
- pIC50 [5]: 7.33
- pIC50 [6]: 7.38
- viability, T/C [7]: 61.5%
- viability, T/C [8]: 13%
- viability, T/C [9]: 5%
- viability, T/C [10]: 4.41%
- viability, T/C [11]: 4.26%
- viability, T/C [12]: 4.75%
- viability, T/C [13]: 69.2%
- viability, T/C [14]: 12.7%
- viability, T/C [15]: 5.72%
- viability, T/C [16]: 4.22%
- viability, T/C [17]: 3.97%
- viability, T/C [18]: 4.43%
- viability, T/C [19]: 74.4%
- viability, T/C [20]: 14.2%
- viability, T/C [21]: 5.49%
- viability, T/C [22]: 4.49%
- viability, T/C [23]: 3.63%
- viability, T/C [24]: 4.89%
- viability, T/C [25]: 72.3%
- viability, T/C [26]: 13.7%
- viability, T/C [27]: 6.05%
- viability, T/C [28]: 4.53%
- viability, T/C [29]: 4.55%
- viability, T/C [30]: 5.17%
- viability, T/C [31]: 68.1%
- viability, T/C [32]: 15.1%
- viability, T/C [33]: 5.47%
- viability, T/C [34]: 4.21%
- viability, T/C [35]: 4.54%
- viability, T/C [36]: 4.6%
- viability, T/C [37]: 62.2%
- viability, T/C [38]: 11.4%
- viability, T/C [39]: 4.96%
- viability, T/C [40]: 3.76%
- viability, T/C [41]: 5.16%
- viability, T/C [42]: 4.53%

Structure (SMILES): C#Cc1c(F)ccc2cc(O)cc(-c3ncc4c(N5CC6CCC(C5)N6)nc(OCC56CCCN5CC(F)C6)nc4c3F)c12 (configuration not stated) + Nc1ccc(C#CCN(C(=O)Cc2ncc(C(F)(F)F)cc2C(F)(F)F)c2ccc(F)cc2)nn1
- pIC50 [1]: 6.50
- pIC50 [2]: 6.58
- pIC50 [3]: 6.58
- pIC50 [4]: 6.54
- pIC50 [5]: 6.75
- pIC50 [6]: 6.91
- viability, T/C [7]: 91.2%
- viability, T/C [8]: 96.2%
- viability, T/C [9]: 48.5%
- viability, T/C [10]: 25.6%
- viability, T/C [11]: 15.5%
- viability, T/C [12]: 10.8%
- viability, T/C [13]: 116%
- viability, T/C [14]: 93.6%
- viability, T/C [15]: 40.6%
- viability, T/C [16]: 22.1%
- viability, T/C [17]: 19.1%
- viability, T/C [18]: 10.1%
- viability, T/C [19]: 83.5%
- viability, T/C [20]: 97.2%
- viability, T/C [21]: 42%
- viability, T/C [22]: 27.4%
- viability, T/C [23]: 16.1%
- viability, T/C [24]: 10.7%
- viability, T/C [25]: 103%
- viability, T/C [26]: 91%
- viability, T/C [27]: 44.2%
- viability, T/C [28]: 22.3%
- viability, T/C [29]: 12.9%
- viability, T/C [30]: 8.94%
- viability, T/C [31]: 87.5%
- viability, T/C [32]: 70.9%
- viability, T/C [33]: 28.8%
- viability, T/C [34]: 15.3%
- viability, T/C [35]: 12.5%
- viability, T/C [36]: 8.73%
- viability, T/C [37]: 106%
- viability, T/C [38]: 55.2%
- viability, T/C [39]: 25%
- viability, T/C [40]: 15%
- viability, T/C [41]: 13%
- viability, T/C [42]: 8.18%
